Measurements taken from patent US7491794B2, “Macrocyclic compounds as inhibitors of viral replication” (Intermune, Inc., priority 2003, dated 2009).

Key:
[1] = molecular target: T1, NS3-NS4A protease (Hepatitis C virus genotype 1a, UniProt P27958); assay: NS3-NS4A protease assay (NS3 inhibition assay, RETS1 substrate), Section B; assay type: biochemical; settings: read-out: NS3-NS4A IC50
T1 construct: Recombinant E. coli or Baculovirus full-length NS3 was diluted to 3.33 μM with assay buffer; made in house; host or cells: E. coli or baculovirus (BV) system
How it was run: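 Full-length NS3 (E. coli or baculovirus) precomplexed with excess NS4A-2 peptide, run at 2 nM (E. coli) or 3 nM (BV) NS3; compounds pre-incubated 10 min at room temperature before RETS1 substrate. Fluorescence (ex 335/em 495 nm) read kinetically 30 min; IC50 from four-parameter fit, converted to Ki via Ki=IC50/(1+[S]/Km).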

[2] = tested on: HCV sub-genomic replicon, GS4.3; assay: Quantitation by ELISA of NPTII in the HCV sub-genomic replicon, GS4.3, Section B; assay type: cell-based; settings: Hepatitis C virus; GS4.3 cells, 72 h incubation; read-out: Replicon EC50
How it was run: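 GS4.3 cells (HuH-7 carrying HCV 1377/NS3-3′ replicon) were treated 72 h at 37 °C with inhibitors in 3-fold dilutions, 1% DMSO, no G418. Lysate NPTII was measured by ELISA (TMB, 450 nm). Signal as % of DMSO control; EC50 from 4-parameter fit.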

T1 sequence (P27958 1027-1657): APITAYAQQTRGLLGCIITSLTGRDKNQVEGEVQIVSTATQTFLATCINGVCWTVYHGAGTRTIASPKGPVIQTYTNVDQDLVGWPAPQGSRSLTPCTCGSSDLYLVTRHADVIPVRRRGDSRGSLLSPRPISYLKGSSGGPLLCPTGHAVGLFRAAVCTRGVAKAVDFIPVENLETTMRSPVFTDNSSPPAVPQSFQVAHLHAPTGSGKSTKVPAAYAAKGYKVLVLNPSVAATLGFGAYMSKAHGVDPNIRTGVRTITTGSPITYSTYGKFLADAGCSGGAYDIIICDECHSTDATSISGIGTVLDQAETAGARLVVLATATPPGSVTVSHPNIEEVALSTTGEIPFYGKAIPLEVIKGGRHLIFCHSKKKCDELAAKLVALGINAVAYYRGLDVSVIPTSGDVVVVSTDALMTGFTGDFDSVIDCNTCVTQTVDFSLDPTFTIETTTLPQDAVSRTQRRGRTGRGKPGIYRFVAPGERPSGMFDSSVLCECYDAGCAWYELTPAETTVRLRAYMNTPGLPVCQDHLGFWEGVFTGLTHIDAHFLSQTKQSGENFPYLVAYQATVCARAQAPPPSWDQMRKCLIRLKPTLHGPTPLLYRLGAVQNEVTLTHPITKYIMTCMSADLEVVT

Structure (SMILES) | IC50 [1] | EC50 [2]
O=C(NC1CCCC1)N[C@H]1CCCCC/C=C\[C@@H]2C[C@@]2(C(=O)NS(=O)(=O)C2CC2)NC(=O)[C@@H]2C[C@@H](OC(=O)N3CCc4cccc(C(F)(F)F)c4C3)CN2C1=O [AR00304081, (1S,4R,6S,14S,18R)-8-Trifluoromethyl-3,4-dihydro-1H-isoquinoline-2-carboxylic acid 14-(3-cyclopentyl-ureido)-4-cyclopropanesulfonylaminocarbonyl-2,15-dioxo-3,16-diaza-tricyclo[14.3.0.0^4,6]nonadec-7-en-18-yl ester] | < 100 nM | < 1000 nM
O=C(NC1CCCC1)N[C@H]1CCCCC/C=C\[C@@H]2C[C@@]2(C(=O)NS(=O)(=O)C2CC2)NC(=O)[C@@H]2C[C@@H](OC(=O)N3Cc4ccccc4C3)CN2C1=O [AR00304082, (1S,4R,6S,14S,18R)-1,3-Dihydro-isoindole-2-carboxylic acid 14-(3-cyclopentyl-ureido)-4-cyclopropanesulfonylaminocarbonyl-2,15-dioxo-3,16-diaza-tricyclo[14.3.0.0^4,6]nonadec-7-en-18-yl ester] | < 100 nM | < 100 nM
CC(C)(C)Nc1nc2c(s1)CN(C(=O)O[C@@H]1C[C@H]3C(=O)N[C@]4(C(=O)O)C[C@H]4/C=C\CCCCC[C@H](NC(=O)OC(C)(C)C)C(=O)N3C1)CC2 [AR00304103, (1S,4R,6S,14S,18R)-14-tert-Butoxycarbonylamino-18-(2-tert-butylamino-6,7-dihydro-4H-thiazolo[5,4-c]pyridine-5-carbonyloxy)-2,15-dioxo-3,16-diaza-tricyclo[14.3.0.0^4,6]nonadec-7-ene-4-carboxylic acid] | < 10000 nM | < 10000 nM
O=C(N[C@H]1CCCCC/C=C\[C@@H]2C[C@@]2(C(=O)O)NC(=O)[C@@H]2C[C@@H](OC(=O)N3CCc4ccccc4C3)CN2C1=O)OCCF [AR00304125, (1S,4R,6S,14S,18R)-18-(3,4-Dihydro-1H-isoquinoline-2-carbonyloxy)-14-(2-fluoro-ethoxycarbonylamino)-2,15-dioxo-3,16-diaza-tricyclo[14.3.0.0^4,6]nonadec-7-ene-4-carboxylic acid] | < 1000 nM | < 10000 nM
O=C(N[C@H]1CCCCC/C=C\[C@@H]2C[C@@]2(C(=O)O)NC(=O)[C@@H]2C[C@@H](OC(=O)N3CCc4ccccc4C3)CN2C1=O)O[C@H]1CCOC1 [AR00304126, (1S,4R,6S,14S,18R)-18-(3,4-Dihydro-1H-isoquinoline-2-carbonyloxy)-2,15-dioxo-14-(tetrahydro-furan-3S-yloxycarbonylamino)-3,16-diaza-tricyclo[14.3.0.0^4,6]nonadec-7-ene-4-carboxylic acid] | < 1000 nM | < 10000 nM
O=C(N[C@H]1CCCCC/C=C\[C@@H]2C[C@@]2(C(=O)O)NC(=O)[C@@H]2C[C@@H](OC(=O)N3CCc4ccccc4C3)CN2C1=O)O[C@@H]1CCOC1 [AR00304127, (1S,4R,6S,14S,18R)-18-(3,4-Dihydro-1H-isoquinoline-2-carbonyloxy)-2,15-dioxo-14-(tetrahydro-furan-3R-yloxycarbonylamino)-3,16-diaza-tricyclo[14.3.0.0^4,6]nonadec-7-ene-4-carboxylic acid] | < 1000 nM | < 10000 nM
O=C(N[C@H]1CCCCC/C=C\[C@@H]2C[C@@]2(C(=O)NS(=O)(=O)C2CC2)NC(=O)[C@@H]2C[C@@H](OC(=O)N3CCc4ccccc4C3)CN2C1=O)OCCF [AR00304161, (1S,4R,6S,14S,18R)-3,4-Dihydro-1H-isoquinoline-2-carboxylic acid 4-cyclopropanesulfonylaminocarbonyl-14-(2-fluoro-ethoxycarbonylamino)-2,15-dioxo-3,16-diaza-tricyclo[14.3.0.0^4,6]nonadec-7-en-18-yl ester] | < 100 nM | < 100 nM
O=C(N[C@H]1CCCCC/C=C\[C@@H]2C[C@@]2(C(=O)NS(=O)(=O)C2CC2)NC(=O)[C@@H]2C[C@@H](OC(=O)N3CCc4ccccc4C3)CN2C1=O)O[C@H]1CCOC1 [AR00304162, (1S,4R,6S,14S,18R)-3,4-Dihydro-1H-isoquinoline-2-carboxylic acid 4-cyclopropanesulfonylaminocarbonyl-2,15-dioxo-14-(tetrahydro-furan-3-yloxycarbonylamino)-3,16-diaza-tricyclo[14.3.0.0^4,6]nonadec-7-en-18-yl ester] | < 100 nM | < 100 nM
O=C(N[C@H]1CCCCC/C=C\[C@@H]2C[C@@]2(C(=O)NS(=O)(=O)C2CC2)NC(=O)[C@@H]2C[C@@H](OC(=O)N3CCc4ccccc4C3)CN2C1=O)O[C@@H]1CCOC1 [AR00304163, (1S,4R,6S,14S,18R)-3,4-Dihydro-1H-isoquinoline-2-carboxylic acid 4-cyclopropanesulfonylaminocarbonyl-2,15-dioxo-14-(tetrahydro-furan-3R-yloxycarbonylamino)-3,16-diaza-tricyclo[14.3.0.0^4,6]nonadec-7-en-18-yl ester] | < 100 nM | < 100 nM
CC(C)(C)OC(=O)N[C@H]1CCCCC/C=C\[C@@H]2C[C@@]2(C(=O)NS(=O)(=O)C2CC2)NC(=O)[C@@H]2C[C@@H](OC(=O)N3CCc4nc(Nc5ccccc5)sc4C3)CN2C1=O [AR00311814, (1S,4R,6S,14S,18R)-2-Phenylamino-6,7-dihydro-4H-thiazolo[5,4-c]pyridine-5-carboxylic acid 14-tert-butoxycarbonylamino-4-cyclopropanesulfonylaminocarbonyl-2,15-dioxo-3,16-diaza-tricyclo[14.3.0.0^4,6]nonadec-7-en-18-yl ester] | < 100 nM | < 10000 nM
CC(C)(C)OC(=O)N[C@H]1CCCCC/C=C\[C@@H]2C[C@@]2(C(=O)NS(=O)(=O)C2CC2)NC(=O)[C@@H]2C[C@@H](OC(=O)N3CCc4ccccc4C3CN3CCCCC3)CN2C1=O (stereo partly drawn) [AR00311815, (1S,4R,6S,14S,18R)-1-Piperidin-1-ylmethyl-3,4-dihydro-1H-isoquinoline-2-carboxylic acid 14-tert-butoxycarbonylamino-4-cyclopropanesulfonylaminocarbonyl-2,15-dioxo-3,16-diaza-tricyclo[14.3.0.0^4,6]nonadec-7-en-18-yl ester] | < 100 nM | < 1000 nM
CC(C)(C)OC(=O)N[C@H]1CCCCC/C=C\[C@@H]2C[C@@]2(C(=O)NS(=O)(=O)C2CC2)NC(=O)[C@@H]2C[C@@H](OC(=O)N3Cc4ccccc4C4(CCC4)C3)CN2C1=O [AR00312024, (1S,4R,6S,14S,18R)-4,4-Spirocyclobutyl-3,4-dihydro-1H-isoquinoline-2-carboxylic acid 14-tert-butoxycarbonylamino-4-cyclopropanesulfonylaminocarbonyl-2,15-dioxo-3,16-diaza-tricyclo[14.3.0.0^4,6]nonadec-7-en-18-yl ester] | < 100 nM | < 100 nM
CC(C)(C)OC(=O)N[C@H]1CCCCCC=C[C@@H]2C[C@@]2(C(=O)NS(=O)(=O)C2CC2)NC(=O)[C@@H]2C[C@@H](OC(=O)N3Cc4ccccc4C(C)(C)C3)CN2C1=O [AR00312025, (1S,4R,6S,14S,18R)-4,4-Dimethyl-3,4-dihydro-1H-isoquinoline-2-carboxylic acid 14-tert-butoxycarbonylamino-4-cyclopropanesulfonylaminocarbonyl-2,15-dioxo-3,16-diaza-tricyclo[14.3.0.0^4,6]nonadec-7-en-18-yl ester] | < 100 nM | < 100 nM
CC1CN(C(=O)O[C@@H]2C[C@H]3C(=O)N[C@]4(C(=O)NS(=O)(=O)C5CC5)C[C@H]4/C=C\CCCCC[C@H](NC(=O)OC(C)(C)C)C(=O)N3C2)Cc2ccccc21 (stereo partly drawn) [AR00312026, (1S,4R,6S,14S,18R)-4-Methyl-3,4-dihydro-1H-isoquinoline-2-carboxylic acid 14-tert-butoxycarbonylamino-4-cyclopropanesulfonylaminocarbonyl-2,15-dioxo-3,16-diaza-tricyclo[14.3.0.0^4,6]nonadec-7-en-18-yl ester] | < 100 nM | < 100 nM
O=C(N[C@H]1CCCCC/C=C\[C@@H]2C[C@@]2(C(=O)NS(=O)(=O)C2CC2)NC(=O)[C@@H]2C[C@@H](OC(=O)N3Cc4ccccc4C4(CCC4)C3)CN2C1=O)O[C@@H]1CCOC1 [AR00314635, (1S,4R,6S,14S,18R)-4,4-Spirocyclobutyl-3,4-dihydro-1H-isoquinoline-2-carboxylic acid 4-cyclopropanesulfonylaminocarbonyl-2,15-dioxo-14-(tetrahydro-furan-3-yloxycarbonylamino)-3,16-diaza-tricyclo[14.3.0.0^4,6]nonadec-7-en-18-yl ester] | < 100 nM | < 100 nM
CC1(C)CN(C(=O)O[C@@H]2C[C@H]3C(=O)N[C@]4(C(=O)NS(=O)(=O)C5CC5)C[C@H]4/C=C\CCCCC[C@H](NC(=O)O[C@H]4CCOC4)C(=O)N3C2)Cc2ccccc21 [AR00314654, (1S,4R,6S,14S,18R)-4,4-Dimethyl-3,4-dihydro-1H-isoquinoline-2-carboxylic acid 4-cyclopropanesulfonylaminocarbonyl-2,15-dioxo-14-(tetrahydro-furan-3S-yloxycarbonylamino)-3,16-diaza-tricyclo[14.3.0.0^4,6]nonadec-7-en-18-yl ester] | < 100 nM | < 100 nM
CC1CN(C(=O)O[C@@H]2C[C@H]3C(=O)N[C@]4(C(=O)NS(=O)(=O)C5CC5)C[C@H]4/C=C\CCCCC[C@H](NC(=O)NC(C)(C)C)C(=O)N3C2)Cc2ccccc21 (stereo partly drawn) [AR00314656, (1S,4R,6S,14S,18R)-4-Methyl-3,4-dihydro-1H-isoquinoline-2-carboxylic acid 14-(3-tert-butyl-ureido)-4-cyclopropanesulfonylaminocarbonyl-2,15-dioxo-3,16-diaza-tricyclo[14.3.0.0^4,6]nonadec-7-en-18-yl ester] | < 100 nM | < 100 nM
